{
  "source": "patent US8486429B2",
  "about": "“Storage stable formulation and a process for its preparation” (priority 2005, dated 2013)",
  "key": {"mice": {"tested_on": "mice", "conditions": "cited from earlier work"}, "rats [1]": {"tested_on": "rats", "conditions": "cited from earlier work"}, "rats [2]": {"tested_on": "rats", "conditions": "cited from earlier work", "remark": "listed apart in the source"}, "[3]": {"conditions": "cited from earlier work"}, "rabbits": {"tested_on": "rabbits", "conditions": "cited from earlier work"}, "[4]": {"conditions": "cited from earlier work; for DT50 (hydrolysis): 40° C.; for DT 50 (calculated) (hydrolysis): 20° C."}, "rats [5]": {"tested_on": "rats", "conditions": "cited from earlier work", "remark": "listed apart in the source"}, "insect": {"tested_on": "insect", "assay": "Synergistic insecticidal effect of Imidacloprid + Acephate (mortality, Colby's method)", "format": "in vivo", "description": "Synergism can be calculated by using the Colby's method i.e. the expected (or predicted) response of the combination is calculated by taking the product of the observed response for each individual component of the combination when applied alone divided by 100 and subtracting this value from the sum of observed response for each component when applied alone. Synergism of the combination is then determined by comparing the observed response of the combination to the expected (or predicted) response as calculated from the observed response of each individual component alone. If the observed response of the combination is greater than the expected (or predicted) response then the combination is said to be synergistic and falls within the definition of synergistic effect. (Colby, S. R., Weeds, 1967(15), p. 20-22)"}, "[6]": {"assay": "AHS stability study in trilaminated pouches, 14 days at 30, 45 and 54° C.: active content and pH of 1% aq. solution/suspension", "format": "physicochemical", "conditions": "for extent to which Acephate degrades: 54° C.", "description": "Acephate technical of 97.5% purity was taken and kept in AHS stability study at 30, 45 and 54° C. in trilaminated pouches. The results of the AHS experiment for Acephate Technical are seen in the following Tables 1, 2 and 3.\n40 gm Acephate technical of 97.5% purity was taken from plant and mixed with 10 gm of citric acid by using laboratory made mixture to obtained homogenious powder and is then kept in AHS at 30, 45 and 54° C. in trilaminated pouches.\n40 gm Acephate technical of 97.5% purity was taken from plant and mixed with 5 gm of citric acid by using laboratory made mixture to obtained homogenious powder and is the kept in AHS at 30, 45 and 54° C. in trilaminated pouches.\n48 gm Acephate technical of 97.5% purity was taken from plant and mixed with 2 gm of citric acid by using laboratory made mixture to obtained homogenious powder and is the kept in AHS at 30, 45 and 54° C. in trilaminated pouches.\nAcephate technical of 97.5% purity was taken from the plant and mixed in a laboratory mixer by adding 1% water and was then kept in AHS stability study at 30° C., 45° C. and 54° C. in trilaminated pouches.\nAcephate technical of 97.5% purity was taken from the plant and mixed in laboratory mixer by adding 1% water 4% citric acid and was then kept in AHS stability study at 30, 45 and 54° C. in trilaminated pouches.\nImidacloprid technical was taken from the plant and is kept in AHS stability study at 30, 45 and 54° C. in trilaminated pouches.\nImidacloprid technical was taken from the plant and mixed in laboratory mixer by adding 1% water and is then is kept in AHS stability study at 45 and 54° C. in trilaminated pouches.\n40 gm of Imidacloprid technical and 10 gm of citric acid was mixed in laboratory mixer and was then kept in AHS stability study at 30, 45 and 54° C. in trilaminated pouches,\n45 gm of Imidacloprid technical and 05 gm of citric acid was mixed in laboratory mixer and was then kept in AHS stability study at 30° C., 45° C. and 54° C. in trilaminated pouches.\n48 gm of Imidacloprid technical and 2 gm of citric acid was mixed in laboratory mixer and was then kept in AHS stability study at 30, 45 and 54° C. in trilaminated pouches.\n49.5 gm of Imidacloprid technical and 0.5 gm of citric acid was mixed in laboratory mixer and was then kept in AHS stability study at 30, 45 and 54° C. in trilaminated pouches.\nImidacloprid technical was taken from plant and mixed in laboratory mixer by adding 10 gm citric acid and 2 gm water and is then is kept in AHS stability study at 30, 45 and 54° C. in trilaminated pouches,\nImidacloprid technical was taken from the plant and mixed in laboratory mixer by adding 5 gm citric acid and 2 gm water and was then kept in AHS stability study at 30, 45 and 54° C. in trilaminated pouches.\n53 gm of Acephate technical was taken from the plant and mixed in a laboratory mixer by adding 3 gm imidacloprid without coating and without any citric acid. This was then kept in AHS stability study at 30, 45 and 54° C. in trilaminated pouches.\n53 gm of Acephate technical was taken from the plant and mixed in a laboratory mixer by adding 3 gm imidacloprid without encapsulation and with 2.2 gm of citric acid . This was then kept in AHS stability study at 30, 45 and 54° C. in trilaminated pouches.\nIn a laboratory plough shear mixture 291.5 gm of Imidacloprid of particle size ranging from 15 micron to 50 micron was charged and blended by operating only the plough. Then 204 gm PEG-8000 was heated in a separate vessel at 65° C. for 15 min. […]"}, "crop plants": {"tested_on": "crop plants", "conditions": "in vivo; cited from earlier work"}, "[7]": {"conditions": "in vivo; cited from earlier work"}, "[8]": {"conditions": "mammals, oral administration, within 24 hours, almost entirely in the urine; cited from earlier work"}},
  "note": "Where two headings read alike, the source gives them in different places.",
  "data": [
    {"smiles": "C/C(=N\\C#N)N(C)Cc1ccc(Cl)nc1", "note": "[Acetamiprid]", "values": [
      {"measurement": "acute oral LD50", "setting": "mice; female mice", "value": 184, "unit": "mg/kg"},
      {"measurement": "acute oral LD50", "setting": "mice; male mice", "value": 198, "unit": "mg/kg"},
      {"measurement": "acute oral LD50", "setting": "rats [1]; female rats", "value": 146, "unit": "mg/kg"},
      {"measurement": "acute oral LD50", "setting": "rats [1]; male rats", "value": 217, "unit": "mg/kg"},
      {"measurement": "Acute percutaneous LD50", "setting": "rats [2]; male and female rats", "value": "> 2000", "unit": "mg/kg"},
      {"measurement": "solubility in organic solvents", "setting": "[3]; acetone, methanol, ethanol, dichloromethane, chloroform, acetonitrile and tetrahydrofuron", "value": "soluble"},
      {"measurement": "irritation to skin and eyes", "setting": "rabbits", "value": "Non irritating"},
      {"measurement": "stability in buffered solutions", "setting": "[4]; pH 4, 5, 7", "value": "Stable"},
      {"measurement": "stability", "setting": "[4]; pH 9 and 45° C.", "value": "Degraded slowly"},
      {"measurement": "stability under sunlight", "setting": "[4]; sunlight", "value": "Stable"},
      {"measurement": "inhalation LC50 (4 h)", "setting": "rats [5]; male and female rats", "value": "> 0.29", "unit": "mg/L"}
    ]},
    {"smiles": "COP(=O)(NC(C)=O)SC", "note": "(stereo not shown) [Experiment 1, O,S-dimethylacetylphosphoramidothioate]", "values": [
      {"measurement": "Observed Mortality %", "setting": "insect; Imidacloprid 0 ppm, Acephate 600 ppm", "value": 52.50, "unit": "%"},
      {"measurement": "Observed Mortality %", "setting": "insect; Imidacloprid 0 ppm, Acephate 700 ppm", "value": 60.00, "unit": "%"},
      {"measurement": "Observed Mortality %", "setting": "insect; Imidacloprid 0 ppm, Acephate 800 ppm", "value": 70.00, "unit": "%"},
      {"measurement": "extent to which Acephate degrades", "setting": "[6]; presence of 1% moisture, absence of Citric acid, initial pH of 4.70", "value": 12.84, "unit": "%"},
      {"measurement": "extent to which Acephate degrades", "setting": "[6]; presence of Citric acid and 1% moisture, initial pH 3.18", "value": 6.88, "unit": "%"},
      {"measurement": "phytotoxicity", "setting": "crop plants", "value": "non-phytotoxic to most crop plants"},
      {"measurement": "solubility in ethanol", "setting": "[3]; 20° C.", "value": "> 100", "unit": "mg/mL"},
      {"measurement": "solubility in water", "setting": "[3]; 20° C.", "value": "about 790 g/l"},
      {"measurement": "DT50 (hydrolysis)", "setting": "[4]; pH 3", "value": 710, "unit": "h"},
      {"measurement": "DT50 (hydrolysis)", "setting": "[4]; pH 9", "value": 60, "unit": "h"}
    ]},
    {"smiles": "O=[N+]([O-])NC1=NCCN1Cc1ccc(Cl)nc1", "note": "[Experiment 7, 1-(6-chloro-3-pyridylmet-hyl)-N-nitroimidazolidin-2-yldeneamine]", "values": [
      {"measurement": "Observed Mortality %", "setting": "insect; Imidacloprid 24 ppm, Acephate 0 ppm", "value": 55.00, "unit": "%"},
      {"measurement": "Observed Mortality %", "setting": "insect; Imidacloprid 27 ppm, Acephate 0 ppm", "value": 69.25, "unit": "%"},
      {"measurement": "Observed Mortality %", "setting": "insect; Imidacloprid 30 ppm, Acephate 0 ppm", "value": 72.10, "unit": "%"},
      {"measurement": "Acute percutaneous LD50 (24 h)", "setting": "rats [2]; rats, 24 h", "value": "> 5000", "unit": "mg/kg"},
      {"measurement": "Stability of Imidacloprid", "setting": "[6]; pH of 2.68, Imidacloprid:citric acid 40:10", "value": "still more unstable"},
      {"measurement": "Stability of Imidacloprid", "setting": "[6]; pH of 3.60, Imidacloprid:Citric acid 49.5:0.5", "value": "unstable"},
      {"measurement": "Stability of Imidacloprid", "setting": "[6]; pH of 5.90", "value": "stable"},
      {"measurement": "solubility in hexane", "setting": "[3]; 20° C.", "value": "< 0.1", "unit": "mg/mL"},
      {"measurement": "skin sensitisation", "setting": "[7]", "value": "Not a skin sensitiser"},
      {"measurement": "irritation to skin and eyes", "setting": "rabbits", "value": "Non irritating"},
      {"measurement": "Stability of imidacloprid reported in literature", "setting": "[4]; pH of 5.60", "value": "stable"},
      {"measurement": "inhalation LC50 (4 h)", "setting": "rats [5]; female rats, aerosol", "value": "> 5323", "unit": "mg/m^3 air"}
    ]},
    {"smiles": "CCN(CC)C(=O)C(Cl)=C(C)OP(=O)(OC)OC", "note": "[Phosphamidon, 2-chloro-2-diethylcarbamoyl-1-methylvinyldimethylphosphate]", "values": [
      {"measurement": "% of the dose excreted", "setting": "[8]", "value": "85-90%"},
      {"measurement": "DT 50 (calculated) (hydrolysis)", "setting": "[4]; pH 5", "value": 60, "unit": "days"},
      {"measurement": "DT 50 (calculated) (hydrolysis)", "setting": "[4]; pH 7", "value": 54, "unit": "days"},
      {"measurement": "DT 50 (calculated) (hydrolysis)", "setting": "[4]; pH 9", "value": 12, "unit": "days"}
    ]}
  ]
}
